Values belong to the molecule of their own block, whether it stands above or below them.
Key:
[1] = target: human D3 dopamine receptor (Homo sapiens (Human), UniProt P35462); assay: Radioligand binding (125I-IABN competition), D3; conditions: for Ki: 125I-IABN competition, HEK cell membranes expressing human D3; for D2/D3 (D3 selectivity ratio, D2 Ki/D3 Ki): calculated D2 Ki/D3 Ki
Experimental: (§1) The affinities of the target compounds were determined using radioligand binding experiments. […] Competition curves were modeled for a single site. Data from competition dose-response curves were analyzed using Tablecurve program (Jandel). IC50 values were converted to equilibrium dissociation constants (Ki values) using the Cheng and Prusoff correction.

[2] = target: human D2-long dopamine receptor (Homo sapiens (Human), UniProt P14416); assay: Radioligand binding (125I-IABN competition), D2; conditions: HEK cell membranes expressing human D2-long
Chain of human D2-long dopamine receptor (P14416 whole entry): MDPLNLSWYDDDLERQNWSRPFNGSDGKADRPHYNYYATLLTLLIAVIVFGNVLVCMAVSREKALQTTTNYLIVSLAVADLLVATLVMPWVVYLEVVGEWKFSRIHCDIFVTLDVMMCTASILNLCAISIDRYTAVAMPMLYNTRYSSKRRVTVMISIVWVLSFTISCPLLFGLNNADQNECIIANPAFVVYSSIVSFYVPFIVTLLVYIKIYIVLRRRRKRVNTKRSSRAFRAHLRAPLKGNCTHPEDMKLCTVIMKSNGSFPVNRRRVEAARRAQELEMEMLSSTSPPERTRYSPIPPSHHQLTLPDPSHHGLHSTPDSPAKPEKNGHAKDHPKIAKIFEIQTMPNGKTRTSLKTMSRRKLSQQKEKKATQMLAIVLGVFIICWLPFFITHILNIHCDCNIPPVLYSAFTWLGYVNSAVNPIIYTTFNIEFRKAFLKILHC
Experimental: as §1

Chain of human D3 dopamine receptor (P35462 whole entry): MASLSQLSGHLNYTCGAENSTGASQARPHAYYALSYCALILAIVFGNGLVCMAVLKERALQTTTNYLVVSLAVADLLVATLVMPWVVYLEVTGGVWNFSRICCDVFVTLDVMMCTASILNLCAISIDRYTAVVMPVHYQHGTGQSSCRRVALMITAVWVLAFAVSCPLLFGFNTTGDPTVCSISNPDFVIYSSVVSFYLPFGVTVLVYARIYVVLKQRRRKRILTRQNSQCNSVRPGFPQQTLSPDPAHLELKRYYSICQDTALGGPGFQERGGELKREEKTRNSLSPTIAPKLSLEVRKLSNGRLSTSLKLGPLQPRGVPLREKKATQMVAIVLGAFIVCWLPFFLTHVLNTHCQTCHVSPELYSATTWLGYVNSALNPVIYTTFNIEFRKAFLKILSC

SMILES: O=C(NCCCCN1CCN(c2cccc(C(F)(F)F)c2)CC1)N1CCN(c2ccccc2)CC1 [Compound 2, 4-Phenyl-N-(4-(4-(3-(trifluoromethyl)phenyl)piperazin-1-yl)butyl)piperazine-1-carboxamide]
Ki [1]: 14.2 ± 2.9 nM | D2/D3 (D3 selectivity ratio, D2 Ki/D3 Ki) [1]: 21 | Ki [2]: 303 ± 10.4 nM

SMILES: CC(C)(C)c1nc(C2CC2)cc(N2CCN(CCCCNC(=O)N3CCN(c4ccccc4)CC3)CC2)n1 [Compound 9, N-(4-(4-(2-(tert-Butyl)-6-cyclopropylpyrimidin-4-yl)piperazin-1-yl)butyl)-4-phenylpiperazine-1-carboxamide]
Ki [1]: 15.1 ± 2.8 nM | D2/D3 (D3 selectivity ratio, D2 Ki/D3 Ki) [1]: 34 | Ki [2]: 515 ± 59.6 nM

SMILES: O=C(NCCCCN1CCN(c2ccnc3cc(Cl)ccc23)CC1)N1CCN(c2ccccc2)CC1 [Compound 12, N-(4-(4-(7-Chloroquinolin-4-yl)piperazin-1-yl)butyl)-4-phenylpiperazine-1-carboxamide]
Ki [1]: 26.9 ± 4.9 nM | D2/D3 (D3 selectivity ratio, D2 Ki/D3 Ki) [1]: 35 | Ki [2]: 933 ± 91 nM

SMILES: CC(C)(C)c1nc(N2CCN(CCCCNC(=O)N3CCC(c4ccc(Cl)cc4)CC3)CC2)cc(C(F)(F)F)n1 [Compound 16, N-(4-(4-(2-(tert-Butyl)-6-(trifluoromethyl)pyrimidin-4-yl)piperazin-1-yl)butyl)-4-(4-chlorophenyl)piperidine-1-carboxamide]
Ki [1]: 21.2 ± 1.4 nM | D2/D3 (D3 selectivity ratio, D2 Ki/D3 Ki) [1]: 42 | Ki [2]: 894 ± 200 nM

SMILES: CC(C)(C)c1nc(N2CCN(CCCCNC(=O)N3CCC(C#N)(c4ccccc4)CC3)CC2)cc(C(F)(F)F)n1 [Compound 17, N-(4-(4-(2-(tert-Butyl)-6-(trifluoromethyl)pyrimidin-4-yl)piperazin-1-yl)butyl)-4-cyano-4-phenylpiperidine-1-carboxamide]
Ki [1]: 16 nM | D2/D3 (D3 selectivity ratio, D2 Ki/D3 Ki) [1]: 52 | Ki [2]: 843 ± 95 nM

SMILES: CC(C)(C)c1nc(N2CCN(CCCCNC(=O)C3CCN(c4ccccc4)CC3)CC2)cc(C(F)(F)F)n1 [Compound 108, N-(4-(4-(2-(tert-Butyl)-6-(trifluoromethyl)pyrimidin-4-yl)piperazin-1-yl)butyl)-1-phenylpiperidine-4-carboxamide]
Ki [2]: 809 ± 194 nM

SMILES: Cc1cc(N2CCN(CCCCNC(=O)c3cn4ccccc4n3)CC2)nc(C(C)(C)C)n1 [Compound 111, N-(4-(4-(2-(tert-Butyl)-6-methylpyrimidin-4-yl)piperazin-1-yl)butyl)imidazo[1,2-a]pyridine-2-carboxamide]
Ki [2]: 366 nM

SMILES: CC(C)(C)c1nc(C2CC2)cc(N2CCN(CCCCNC(=O)c3cn4ccccc4n3)CC2)n1 [Compound 112, N-(4-(4-(2-(tert-Butyl)-6-cyclopropylpyrimidin-4-yl)piperazin-1-yl)butyl)imidazo[1,2-a]pyridine-2-carboxamide]
Ki [2]: 191 nM

SMILES: O=C(NCCCCN1CCN(c2ccnc3cc(Cl)ccc23)CC1)c1cn2ccccc2n1 [Compound 118, N-(4-(4-(7-Chloroquinolin-4-yl)piperazin-1-yl)butyl)imidazo[1,2-a]pyridine-2-carboxamide]
Ki [2]: 1880 ± 488 nM

SMILES: Cc1nc(N2CCN(CCCCNC(=O)c3cn4ccccc4n3)CC2)cc(C(C)(C)C)n1 [Compound 125, N-(4-(4-(6-(tert-Butyl)-2-methylpyrimidin-4-yl)piperazin-1-yl)butyl)imidazo[1,2-a]pyridine-2-carboxamide]
Ki [2]: 4600 ± 785 nM

SMILES: O=C(NCCCCN1CCN(c2cc(C(F)(F)F)nc3ccccc23)CC1)c1cn2ccccc2n1 [Compound 130, N-(4-(4-(2-(Trifluoromethyl)quinolin-4-yl)piperazin-1-yl)butyl)imidazo[1,2-a]pyridine-2-carboxamide]
Ki [2]: 13600 ± 6260 nM

More lines, now with the values ahead:

Ki [1]: 15.1 ± 4.2 nM | D2/D3 (D3 selectivity ratio, D2 Ki/D3 Ki) [1]: 22 | Ki [2]: 337 ± 67.8 nM
SMILES: CC(C)(C)c1cc(N2CCN(CCCCNC(=O)N3CCN(c4ccccc4)CC3)CC2)nc(C(C)(C)C)n1 [Compound 10, N-(4-(4-(2,6-Di-tert-butylpyrimidin-4-yl)piperazin-1-yl)butyl)-4-phenylpiperazine-1-carboxamide]

Ki [1]: 21.4 ± 3.4 nM | D2/D3 (D3 selectivity ratio, D2 Ki/D3 Ki) [1]: 34 | Ki [2]: 738 ± 88.8 nM
SMILES: CC(C)(C)c1nc(N2CCN(CCCCNC(=O)N3CCN(c4ccccc4Cl)CC3)CC2)cc(C(F)(F)F)n1 [Compound 14, N-(4-(4-(2-(tert-Butyl)-6-(trifluoromethyl)pyrimidin-4-yl)piperazin-1-yl)butyl)-4-(2-chlorophenyl)piperazine-1-carboxamide]

Ki [1]: 19.3 ± 1.6 nM | D2/D3 (D3 selectivity ratio, D2 Ki/D3 Ki) [1]: 30 | Ki [2]: 582 ± 127 nM
SMILES: CC(C)(C)c1nc(N2CCN(CCCCNC(=O)N3CCN(c4cccc(Cl)c4)CC3)CC2)cc(C(F)(F)F)n1 [Compound 15, N-(4-(4-(2-(tert-Butyl)-6-(trifluoromethyl)pyrimidin-4-yl)piperazin-1-yl)butyl)-4-(3-chlorophenyl)piperazine-1-carboxamide]

Ki [1]: 24.6 ± 4.9 nM | D2/D3 (D3 selectivity ratio, D2 Ki/D3 Ki) [1]: 31 | Ki [2]: 759 ± 97 nM
SMILES: CC(C)(C)c1nc(N2CCN(CCCCNC(=O)N3CCN(c4cccc(Cl)c4Cl)CC3)CC2)cc(C(F)(F)F)n1 [Compound 18, N-(4-(4-(2-(tert-Butyl)-6-(trifluoromethyl)pyrimidin-4-yl)piperazin-1-yl)butyl)-4-(2,3-dichlorophenyl)piperazine-1-carboxamide]

Ki [1]: 25.2 ± 5.5 nM | D2/D3 (D3 selectivity ratio, D2 Ki/D3 Ki) [1]: 34 | Ki [2]: 861 ± 137 nM
SMILES: COc1ccccc1N1CCN(C(=O)NCCCCN2CCN(c3cc(C(F)(F)F)nc(C(C)(C)C)n3)CC2)CC1 [Compound 19, N-(4-(4-(2-(tert-Butyl)-6-(trifluoromethyl)pyrimidin-4-yl)piperazin-1-yl)butyl)-4-(2-methoxyphenyl)piperazine-1-carboxamide]

Ki [1]: 13 ± 0.7 nM | D2/D3 (D3 selectivity ratio, D2 Ki/D3 Ki) [1]: 58 | Ki [2]: 762 ± 159 nM
SMILES: COc1cccc(N2CCN(C(=O)NCCCCN3CCN(c4cc(C(F)(F)F)nc(C(C)(C)C)n4)CC3)CC2)c1 [Compound 20, N-(4-(4-(2-(tert-Butyl)-6-(trifluoromethyl)pyrimidin-4-yl)piperazin-1-yl)butyl)-4-(3-methoxyphenyl)piperazine-1-carboxamide]

Ki [1]: 11.6 ± 0.9 nM | D2/D3 (D3 selectivity ratio, D2 Ki/D3 Ki) [1]: 48 | Ki [2]: 557 ± 79.5 nM
SMILES: COc1ccc(N2CCN(C(=O)NCCCCN3CCN(c4cc(C(F)(F)F)nc(C(C)(C)C)n4)CC3)CC2)cc1 [Compound 21, N-(4-(4-(2-(tert-Butyl)-6-(trifluoromethyl)pyrimidin-4-yl)piperazin-1-yl)butyl)-4-(4-methoxyphenyl)piperazine-1-carboxamide]

Ki [1]: 24.7 ± 5.4 nM | D2/D3 (D3 selectivity ratio, D2 Ki/D3 Ki) [1]: 38 | Ki [2]: 928 ± 231 nM
SMILES: Cc1cccc(N2CCN(C(=O)NCCCCN3CCN(c4cc(C(F)(F)F)nc(C(C)(C)C)n4)CC3)CC2)c1 [Compound 22, N-(4-(4-(2-(tert-Butyl)-6-(trifluoromethyl)pyrimidin-4-yl)piperazin-1-yl)butyl)-4-(m-tolyl)piperazine-1-carboxamide]

Ki [1]: 22.8 ± 4.2 nM | D2/D3 (D3 selectivity ratio, D2 Ki/D3 Ki) [1]: 35 | Ki [2]: 802 ± 179 nM
SMILES: Cc1ccc(N2CCN(C(=O)NCCCCN3CCN(c4cc(C(F)(F)F)nc(C(C)(C)C)n4)CC3)CC2)cc1 [Compound 23, N-(4-(4-(2-(tert-Butyl)-6-(trifluoromethyl)pyrimidin-4-yl)piperazin-1-yl)butyl)-4-(p-tolyl)piperazine-1-carboxamide]

From patent publication US9598387B2 (Southern Research Institute, priority 2012, dated 2017)
